molecular target: T1, Axl (Homo sapiens, UniProt P30530); test: Phospho-Akt In-Cell Western Assay (ability to inhibit Axl activity); type: cell-based; conditions: Hela cells, stimulated by Axl-antibody cross-linking, phospho-Akt chemiluminescence normalized to relative cell number
T1 construct: endogenous in cells; host or cells: HeLa cells
T1 sequence (P30530 26-894): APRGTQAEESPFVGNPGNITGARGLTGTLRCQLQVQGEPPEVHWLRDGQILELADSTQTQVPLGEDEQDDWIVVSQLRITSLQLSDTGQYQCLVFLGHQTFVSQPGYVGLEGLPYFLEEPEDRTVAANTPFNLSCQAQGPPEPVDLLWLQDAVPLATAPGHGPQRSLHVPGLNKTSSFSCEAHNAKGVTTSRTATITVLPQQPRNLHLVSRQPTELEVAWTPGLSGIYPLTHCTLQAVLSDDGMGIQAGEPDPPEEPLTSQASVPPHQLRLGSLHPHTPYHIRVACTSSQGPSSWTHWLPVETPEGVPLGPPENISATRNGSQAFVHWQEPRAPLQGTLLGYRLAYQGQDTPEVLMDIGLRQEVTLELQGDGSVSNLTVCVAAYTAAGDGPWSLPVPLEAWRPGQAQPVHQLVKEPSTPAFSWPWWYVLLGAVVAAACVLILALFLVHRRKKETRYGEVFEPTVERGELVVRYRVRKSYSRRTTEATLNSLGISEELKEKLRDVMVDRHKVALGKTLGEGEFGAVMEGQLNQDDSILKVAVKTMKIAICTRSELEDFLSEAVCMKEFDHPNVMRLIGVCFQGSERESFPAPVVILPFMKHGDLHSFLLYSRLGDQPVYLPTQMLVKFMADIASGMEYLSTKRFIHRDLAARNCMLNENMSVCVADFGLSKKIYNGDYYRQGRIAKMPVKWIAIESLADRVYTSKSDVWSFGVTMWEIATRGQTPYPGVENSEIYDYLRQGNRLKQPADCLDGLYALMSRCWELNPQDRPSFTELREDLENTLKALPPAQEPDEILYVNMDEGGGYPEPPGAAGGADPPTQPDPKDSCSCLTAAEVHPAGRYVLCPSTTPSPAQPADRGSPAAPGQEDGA
Procedure: The compounds of the invention were tested in the following assay for their ability to inhibit Axl activity.
Phospho-Akt In-Cell Western Assay
• Cell culture plate: 96 well assay plate (Corning 3610), white, clear bottom, tissue-culture treated. • Cells: Hela cells. • Starvation medium: For Axl stimulation: 0.5% FCS (fetal calf serum) in DMEM, plus Axl/Fc (extracellular domain of AXL fused to immunoglobulin Fc region) (R&D, 154-AL) 500 ng/mL. • For EGF (epidermal growth factor) stimulation: 0.5% FCS in DMEM (Dulbecco's modified Eagles medium). • Poly-L-Lysine 0.01% solution (the working solution): 10 μg/ml, dilute In PBS (phosphate buffered saline). • Axl antibody cross-linking: • 1st: Mouse anti-Axl (R&D, MAB154). • 2nd: Biotin-SP-conjugated AffiniPure goat anti-mouse IgG (H+L) (Jackson ImmunoResearch #115-065-003). • Fixing buffer: 4% formaldehyde in PBS. • Wash buffer: 0.1% TritonX-100 in PBS. • Quenching buffer: 3% H2O2, 0.1% Azide in wash buffer, Azide and hydrogen peroxide (H2O2) are added fresh. • Blocking buffer: 5% BSA in TBST (tris buffered saline plus 0.1% Tween 20). • Primary antibody: Rabbit anti-human Phospho-Akt antibody (Cell Signaling 9271): 1×250 diluted in blocking buffer. • Secondary antibody: HRP (horse radish peroxidase)-conjugated Goat anti-Rabbit secondary, stock solution: Jackson ImmunoResearch (Goat anti-Rabbit HRP, #111-035-144) 1:1 diluted in glycerol, store at −20° C. The working solution: 1×2000 dilution of stock in blocking buffer. • Chemiluminescent working solution (Pierce, 37030): SuperSignal ELISA (enzyme linked immunosorbant assay) Pico Chemiluminescent substrate. • Crystal Violet solution: Stock: 2.5% Crystal violet in methanol, filtered and kept at ambient temperature. The working solution: dilute the stock 1:20 with PBS immediately before use. • 10% SDS: working solution: 5% SDS (sodium dodecylsulfate), diluted in PBS Methods: Day 1:
A 96 well TC (tissue culture treated) plate was coated with 10 μg/mL poly-L-Lysine at 37° C. for 30 min, washed twice with PBS, and air-dried for 5 minutes before cells were added. Hela cells were seeded at 10,000 cells/well and the cells were starved in 100 μL starvation medium containing Axl/Fc for 24 hrs.
The cells were pre-treated with test compounds by adding 100 μL of 2× test compound to the starvation medium on the cells. The cells were incubated at 37° C. for 1 hr before stimulation.
The cells were stimulated by Axl-antibody cross-linking as follows: A 5×1st/2nd Axl antibody mixture was made (37.5 μg/mL 1st/100 μg/mL 2nd) in starvation medium and nutated at 4° C. with thorough mixing for 1-2 hours for clustering. The resulting mix was warmed to 37° C. 50 μL of 5× Axl 1st/2nd of antibody cluster was added to the cells and the cells were incubated at 37° C. for 5 min.
After 5 minutes stimulation, the plate was flicked to remove medium and the plate was tapped onto paper towels. Formaldehyde (4.0% in PBS, 100 μL) was added to fix the cells and the cells were incubated at ambient temperature for 20 min without shaking.
The cells were washed with a plate washer buffer to remove the formaldehyde solution. The plate was flicked to removed excess wash buffer and tapped onto paper towels. Quenching buffer (100 μL) was added to each well and the cells were incubated at ambient temperature for 20 minutes without shaking.
The cells were washed with a plate washer buffer to remove the quenching buffer. Blocking buffer (100 μL) was added and the cells were incubated at ambient temperature for at least an hour with gentle shaking.
The cells were washed with a plate washer buffer and diluted primary antibody (50 μL) was added to each well (blocking buffer was added to the negative control wells instead). The plates were incubated overnight at 4° C. with gentle shaking.
The wash buffer was removed, diluted secondary antibody (100 μL) was added, and the cells were incubated at ambient temperature for 1 hour with gentle shaking. […]

SMILES	IC50 [µM]
Nc1nc(Nc2ccc3c(c2)CCNC3)nn1-c1ncc2c(n1)C1CCC2C1 (centres unmarked) [Compound 13, 1-(5,8-methano-5,6,7,8-tetrahydroquinazolin-2-yl)-N^3-(1,2,3,4-tetrahydroisoquinolin-6-yl)-1H-1,2,4-triazole-3,5-diamine]	> 20
Cc1csc2c(-n3nc(Nc4cnc5c(c4)C4CCC(C5)N4C)nc3N)nc(Cl)nc12 (centres unmarked) [Compound 24, 1-(2-chloro-7-methylthieno[3,2-d]pyrimidin-4-yl)-N^3-(5,7-ethano-5,7,8-trihydro-6-methyl-1,6-naphthyridin-3-yl)-1H-1,2,4-triazole-3,5-diamine]	< 1
Nc1nc(Nc2ccc(N3CCC(N4CCCC4)CC3)c(F)c2)nn1-c1cc(-c2ccccc2)c2c(n1)C1CCN2CC1 [Compound 25, 1-(1,4-ethano-8-phenyl-1,2,3,4-tetrahydro-1,5-naphthyridin-6-yl)-N^3-(3-fluoro-4-(4-(pyrrolidin-1-yl)piperidin-1-yl)phenyl)-1H-1,2,4-triazole-3,5-diamine]	< 1
Cc1csc2c(-n3nc(Nc4cnc5c(c4)C4CCC(C5)N4C)nc3N)ncnc12 (centres unmarked) [Compound 26, 1-(7-methylthieno[3,2-d]pyrimidin-4-yl)-N^3-(5,7-ethano-5,6,7,8-tetrahydro-6-methyl-1,6-naphthyridin-3-yl)-1H-1,2,4-triazole-3,5-diamine]	< 1
Cc1csc2c(-n3nc(Nc4cnc5c(c4)CN4CCC5CC4)nc3N)ncnc12 [Compound 27, 1-(7-methylthieno[3,2-d]pyrimidin-4-yl)-N^3-(6,9-ethano-6,7,8,9-tetrahydro-5H-pyrido[3,2-c]azepin-3-yl)-1H-1,2,4-triazole-3,5-diamine]	< 1
CN1CCN(c2ccc(Nc3nc(N)n(-c4cc(-c5ccccc5)c5c(n4)C4CCN5CC4)n3)cn2)CC1 [Compound 28, 1-(1,4-ethano-8-phenyl-1,2,3,4-tetrahydro-1,5-naphthyridin-6-yl)-N^3-(2-(4-methylpiperazin-1-yl)pyridine-5-yl)-1H-1,2,4-triazole-3,5-diamine]	< 1
Nc1nc(Nc2ccc(N3CCC(N4CCCC4)CC3)nc2)nn1-c1cc(-c2ccccc2)c2c(n1)C1CCN2CC1 [Compound 29, 1-(1,4-ethano-8-phenyl-1,2,3,4-tetrahydro-1,5-naphthyridin-6-yl)-N^3-(2-(4-(pyrrolidin-1-yl)piperidin-1-yl)pyridine-5-yl)-1H-1,2,4-triazole-3,5-diamine]	< 1
Nc1nc(Nc2ccc(N3CCC(N4CCCC4)CC3)c(F)c2)nn1-c1cc(-c2cccs2)c2c(n1)C1CCN2CC1 [Compound 30, 1-(1,4-ethano-8-thiophen-2-yl-1,2,3,4-tetrahydro-1,5-naphthyridin-6-yl)-N^3-(3-fluoro-4-(4-(pyrrolidin-1-yl)piperidin-1-yl)phenyl)-1H-1,2,4-triazole-3,5-diamine]	< 1
Nc1nc(Nc2ccc(N3CCC(N4CCCC4)CC3)c(F)c2)nn1-c1cc(-c2ccncc2)c2c(n1)C1CCN2CC1 [Compound 32, 1-(1,4-ethano-8-pyridin-4-yl-1,2,3,4-tetrahydro-1,5-naphthyridin-6-yl)-N^3-(3-fluoro-4-(4-(pyrrolidin-1-yl)piperidin-1-yl)phenyl)-1H-1,2,4-triazole-3,5-diamine]	< 1
Nc1nc(Nc2ccc(N3CCNC(C(=O)O)C3)c(F)c2)nn1-c1cc(-c2ccccc2)c2c(n1)C1CCN2CC1 (centres unmarked) [Compound 33, 1-(1,4-ethano-8-phenyl-1,2,3,4-tetrahydro-1,5-naphthyridin-6-yl)-N^3-(3-fluoro-4-(3-carboxypiperazin-1-yl)phenyl)-1H-1,2,4-triazole-3,5-diamine]	1 to 10
CN1CCN(c2ccc(Nc3nc(N)n(-c4cc(-c5ccccc5)c5c(n4)C4CCN5CC4)n3)cc2)CC1 [Compound 35, 1-(1,4-ethano-8-phenyl-1,2,3,4-tetrahydro-1,5-naphthyridin-6-yl)-N^3-(4-(4-methylpiperazin-1-yl)phenyl)-1H-1,2,4-triazole-3,5-diamine]	< 1

The remaining lines, values ahead:

IC50 [µM]	SMILES
< 1	Cc1csc2c(-n3nc(Nc4ccc5c(c4)CC4CCC(C5)C4N4CCCC4)nc3N)nc(Cl)nc12 (centres unmarked) [Compound 15, 1-(2-chloro-7-methylthieno[3,2-d]pyrimidin-4-yl)-N^3-(7-pyrrolidin-1-yl-6,8-ethano-6,7,8,9-tetrahydro-5H-benzo[7]annulene-3-yl)-1H-1,2,4-triazole-3,5-diamine]
< 1	COc1cc2ncnc(-n3nc(Nc4ccc5c(c4)CC4CCC(C5)C4N4CCCC4)nc3N)c2cc1OC (centres unmarked) [Compound 16, 1-(6,7-dimethoxyquinazolin-4-yl)-N^3-(7-pyrrolidin-1-yl-6,8-ethano-6,7,8,9-tetrahydro-5H-benzo[7]annulene-3-yl)-1H-1,2,4-triazole-3,5-diamine]
< 1	CCN(CC)C1CCN(c2ccc(Nc3nc(N)n(-c4ncnc5c4C4CCC5C4)n3)cc2F)CC1 (centres unmarked) [Compound 17, 1-(5,8-methano-5,6,7,8-tetrahydroquinazolin-4-yl)-N^3-(3-fluoro-4-(4-diethylaminopiperidin-1-yl)phenyl)-1H-1,2,4-triazole-3,5-diamine]
< 1	Nc1nc(Nc2ccc(N3CCN(C4CC5CCC4C5)CC3)cc2)nn1-c1ncnc2c1C1CCC2C1 (centres unmarked) [Compound 18, 1-(5,8-methano-5,6,7,8-tetrahydroquinazolin-4-yl)-N^3-(4-(4-(bicyclo[2.2.1]heptan-2-yl)piperazin-1-yl)phenyl)-1H-1,2,4-triazole-3,5-diamine]
< 1	Nc1nc(Nc2ccc(OCCN3CCCC3)cc2)nn1-c1ncnc2c1C1CCC2C1 (centres unmarked) [Compound 19, 1-(5,8-methano-5,6,7,8-tetrahydroquinazolin-4-yl)-N^3-(4-(2-(pyrrolidin-1-yl)ethoxy)phenyl)-1H-1,2,4-triazole-3,5-diamine]
< 1	CN1CCN(c2ccc(Nc3nc(N)n(-c4ncnc5c4C4CCC5C4)n3)cc2)CC1 (centres unmarked) [Compound 20, 1-(5,8-methano-5,6,7,8-tetrahydroquinazolin-4-yl)-N^3-(4-(4-methylpiperazin-1-yl)phenyl)-1H-1,2,4-triazole-3,5-diamine]

— patent publication US8609650B2, “Bridged bicyclic aryl and bridged bicyclic heteroaryl substituted triazoles useful as Axl inhibitors” (Rigel Pharmaceuticals, Inc., priority 2006, dated 2013)
